Measured values: patent US5468486A, “Vaccine containing a protein alkaloid conjugate for the treatment of fescue toxicosis” (priority 1994, dated 1995)

Test system: antiserum produced against the ergonovine KLH conjugate
Assay: Competitive ELISA
Type: binding, rabbit
Settings: for Concentration (ng/ml) of 50% A (A50) / IC50: predicted value for 50% maximal absorbance, linear regression, antiserum 1:1000, HSA-ergonovine coated plates; for IC50: read-out: Concentration (μM) of 50% A; for Cross Reactivity (%): relative to ergonovine
Experimental: Antiserum preparation: Three female New Zealand white rabbits were immunized with the HSA-ergonovine conjugate and two with the KLH-ergonovine conjugate. Initially, each rabbit was injected with 1 mg of the respective conjugate in 1 ml of phosphate buffered saline that had been emulsified with an equal amount of Freund's complete adjuvant. Booster injections of 0.2 mg of conjugate per rabbit, emulsified with Freund's incomplete adjuvant, were given at 5 and 10 weeks after the first injections. The rabbits were bled 8 and 16 days after each booster injection. Serum was collected after two cycles of low speed centrifugation. Serum from each rabbit was pooled before testing in the competitive enzyme linked immunosorbent assay (ELISA).
Competitive ELISA: Duplicate polystyrene ELISA plates were numbered and rinsed once with distilled water. The HSA-ergonovine conjugate [[…] in carbonate coating buffer (0.5μsodium carbonate, pH 9.6)] was pipetted into each well ([…]). After 2H at 30° C. the plates were washed 4 times quickly with physiologically buffered saline (PBS) Tween (0.02M phosphate, 0.15M NaCl, 3 mM KC1+0.05% TWEEN 20, pH 7.3). All subsequent rinse steps were done with PBS-Tween. Serial dilutions were made of […] compounds used in the competitive assay. All dilutions were made in PBS-Tween. These compounds and their initial concentrations were: agroclavine 0.5 mM, ergocryptine at 100 μM, unconjugated ergonovine at 1 μM, ergotamine at 100 μM, ergovaline at 10 μM, lysergol at 10 mM, dihydroergotamine at 200 μM and IAA at 1 mM. After placing 100 μl of each dilution in duplicate wells, an additional 100 μl of antiserum, produced against the ergonovine KLH conjugate, was added to each well at a dilution of 1:1000 and mixed. The plates were incubated for 2 H at 30° C. and again rinsed 4 times quickly. Protein-A alkaline phosphatase (0.5 μg/ml in PBS-Tween) was placed in wells (200 μl/well) and incubated for 2 H at 30° C. The plates were again rinsed 4 times. Substrate, SIGMA 104® phosphatase substrate (5 mg/ml), in 10% diethanolamine, pH 9.6 was added to each well (150 μl/well). The reaction was stopped after 30 min. with 3M NaOH (75 μl/well). The plates were read on a DYNATECH MINIREADER II® reader. Mean values were calculated from duplicate wells per plate and duplicate plates were averaged. From these values a percent maximal absorbance level was calculated.

CC(C)[C@H]1C(=O)N2CCC[C@H]2[C@]2(O)O[C@@](C)(NC(=O)[C@@H]3C=C4c5cccc6[nH]cc(c56)C[C@H]4N(C)C3)C(=O)N12 [ergovaline]
Concentration (ng/ml) of 50% A (A50): 8 ng/mL | Concentration (ng/ml) of 50% A (A50) (listed as Ergovaline): below 100 ng/ml | IC50: 0.15 µM | Cross Reactivity (%): 20% | Cross Reactivity (%) (listed as Ergovaline): ≥ 2%

CC1=C[C@@H]2c3cccc4[nH]cc(c34)C[C@H]2N(C)C1 [agroclavine]
IC50: 3.2 µM

CN1C[C@H](C(=O)N[C@]2(C)O[C@@]3(O)[C@@H]4CCCN4C(=O)[C@H](Cc4ccccc4)N3C2=O)C[C@@H]2c3cccc4[nH]cc(c34)C[C@H]21 [dihydroergotamine]
Concentration (ng/ml) of 50% A (A50): 6833 ng/mL

CN1C[C@H](CO)C=C2c3cccc4[nH]cc(c34)C[C@H]21 [lysergol]
Concentration (ng/ml) of 50% A (A50): 940 ng/mL | IC50: 3.7 µM | Cross Reactivity (%): 4% | Cross Reactivity (%) (listed as Lysergol): less than 1%

C[C@@H](CO)NC(=O)[C@@H]1C=C2c3cccc4[nH]cc(c34)C[C@H]2N(C)C1 [ergonovine]
Concentration (ng/ml) of 50% A (A50): 1.6 ng/mL | IC50: 0.05 µM | Cross Reactivity (%): 100%

CN1C[C@H](C(=O)N[C@]2(C)O[C@@]3(O)[C@@H]4CCCN4C(=O)[C@H](Cc4ccccc4)N3C2=O)C=C2c3cccc4[nH]cc(c34)C[C@H]21 [ergotamine]
IC50: 0.4 µM

CC(C)C[C@H]1C(=O)N2CCC[C@H]2[C@]2(O)O[C@](NC(=O)[C@@H]3C=C4c5cccc6[nH]cc(c56)C[C@H]4N(C)C3)(C(C)C)C(=O)N12 [ergocryptine]
Concentration (ng/ml) of 50% A (A50): 33 ng/mL | Concentration (ng/ml) of 50% A (A50) (listed as ergocrytine): below 100 ng/ml | IC50: 0.59 µM | Cross Reactivity (%): 5% | Cross Reactivity (%) (listed as ergocrytine): ≥ 2%
